Reference: patent publication EP0998946A1, “Non-porphyrin compound for use as a diagnosticum and/or pharmaceutical” (K.U. LEUVEN RESEARCH & DEVELOPMENT, priority 1998, dated 2000)

Tests used:
[1] = test system: Reperfused hepatic infarction in rats; assay: MRI contrast enhancement, reperfused hepatic infarction in rats; assay type: in vivo, Wistar rats
[2] = test system: Acute myocardial infarction; assay: MRI contrast enhancement, reperfused myocardial infarction in rabbits; assay type: in vivo, New Zealand rabbits; conditions: rabbit heart, 18 hours after IV injection at 0.05 mmol/kg, T1-w spin echo
[3] = test system: Acute myocardial infarction; assay: MRI contrast enhancement, acute reperfused myocardial infarction in dogs; assay type: in vivo, Mongrel dogs; conditions: dog
rats = assay: Acute lethal toxicity (LD50) in rats; conditions: 5.0 mmol/kg
mice = assay: Acute lethal toxicity (LD50) in mice
[4] = test system: reperfused hepatic infarction; assay: Scintigraphic imaging and infarction to normal tissue radioactivity ratio; assay type: in vivo, rat; conditions: 74 MBq
Experimental: Two effective and reproducible animal models have been induced and used in the in vivo assessment of newly synthesized agents. • 1. Reperfused hepatic infarction in rats: adult Wistar rats weighing about 350 grams were anesthetized with intraperitoneal injection of pentobarbital (Nembutal®, 40 mg/kg, Sanofi Sante Animale, B-1130 Brussels, Belgium). Under laparotomy, reperfused hepatic infarction was induced by temporarily clamping the hilum of the right liver lobes for 3 hours. The abdominal cavity was then closed and the rats were allowed to recover from surgery. • 2. Acute myocardial infarction in rabbits and dogs: under general anesthesia with Nembutal® at 6 mg/kg/h and intubated ventilation, adult New Zealand rabbits of 3 kg or Mongrel dogs of 20 kg underwent open-chest surgery through the seventh intercostal space. The left anterior descending (LAD) or circumflex (Cx) branch of the coronary artery was encircled and occluded with a snare-occluder for 150 minutes and reopened by losing the occluder to induce irreversible reperfused AMI. The thoracic cavity was closed by layers with the free air expelled.
[…] This animal was prepared as described above. Scintigraphic images were acquired during 1 to 5 minutes at regular time intervals up to 24 h after injection, using a Triad-gamma camera equipped with an ultra-high resolution parallel collimator.
After sacrificing the animal, organs were isolated and necrotic and viable liver parts were separated and weighed. Their 99m Tc radioactivity was measured using a sodium iodine scintillation detector coupled to a multichannel analyzer. The activity per gram tissue was a factor of 3.2 higher in necrotic liver tissue as compared to normal liver tissue.
This imaging result has been confirmed by radioactivity counting with a factor of more than 3 between infarcted and normal liver tissues.

necrotic liver = assay: Biodistribution: tissue Gd content by ICP-AES in rats; conditions: Gadophrin-2 comparison
[5] = rat, 0.05 mmol/kg, T1 weighted spin echo

With `CNC[C@H](O)[C@@H](O)[C@H](O)[C@H](O)CO.CNC[C@H](O)[C@@H](O)[C@H](O)[C@H](O)CO.O=C([O-])CN(CCN(CC(=O)[O-])CC(=O)O)CCN(CC(=O)[O-])CC(=O)O.[Gd+3]` [Gd-DTPA, reference compound] the “contrast enhancement of the lesions” value ([1]; T1 weighted MRI, hepatic and myocardial infarcts, iv 0.05 mmol/kg (Gd-DTPA 0.1 mmol/kg), degree and duration equal to that with Gadophrin-2) was “only enhances nonspecifically the lesions at the early phase (<2h)”.
“N,N'-Bis(diethylenetriamino penta-acetato)-4,4'-methylene bis(3-hydroxy-2-naphthalene carboxylic hydrazide), Gd-complex, sodium salt [ECIII-60]” was tested, and the “enhancement of the transmural infarct” value [2] was “persistently enhanced”, the “enhancement at the infarcted papillary muscle” value ([3]; eighteen hours after contrast, 0.05 mmol/kg IV) was “extremely strong enhancement” and the “signals of blood pool and papillary muscle” value ([3]; ten minutes after IV injection at 0.05 mmol/kg, T1-w turbo-FLASH) was “strongly enhanced”. The “No. Deaths/No. animals” value (rats) was 4/4, the “signal intensity of infarcted liver versus normal liver” value ([1]; rat, 0.05 mmol/kg, 60 minutes after injection, T1 weighted spin echo) was “surpassed that of normal liver” and the “time at which the necrosis-to-normal contrast reached maximum” value [1, 5] was 24 h. The “time until the enhancement of the necrosis became homogeneous” value [1, 5] was “within a couple of hours”, the “No. Deaths/No. animals” value (mice; 2.15 mmol/kg) was 0/4 and the “No. Deaths/No. animals” value (mice; 5.0 mmol/kg) was 3/3.
“N,N'-Bis(diethylenetriamino penta-acetato)-4,4'-methylene bis(3-hydroxy-2-naphthalene carboxylic hydrazide), technetium-99m complex, sodium salt [Example 3]” was tested, and the nuclear scintigraphy finding ([4]; rat with reperfused right liver lobe infarction, 24 hours after administration) was “hot spot caused by accumulation tracer in the necrotic liver lobe only”, the “activity per gram tissue, factor necrotic liver tissue versus normal liver tissue” value ([4]; rat, 99mTc radioactivity of isolated liver parts after sacrifice) was 3.2 and the “scintigraphic visualization of the infarcted region” value ([4]; rat, images acquired 20 h after injection) was “Clear visualization of the infarcted region”. For the same compound, the “radioactivity counting, factor between infarcted and normal liver tissues” value ([4]; rat, 24 hours after administration) was “more than 3”.
gadolinium mesoporphyrin [Gadophrin-2] was tested, and the “Gadolinium content, proportion necrotic liver to normal liver” value (necrotic liver) was “one-to-one”.
